Experimental findings from ChEMBL document CHEMBL1201862, “PubChem BioAssay data set” (2004) are described below.

Structures are written as SMILES.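 The compound was tested at five concentrations on cells cultured in 96-well plates, with a 48-hour exposure period. At the GI50, growth is halved.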 Active and inactive are the calls of the source. Cut-off read from the data, not from the text of the source: active = GI50 up to about 1.1 µM and inactive = higher.

Common to all, as to assay: DTP human tumour cell line panel, 48 h
For experiment [1], the system named is M14.
Experiment [2] concerns PC-3.
In experiment [3] the test system is A549.
Experiment [4] concerns SNB-75.
The subject of experiment [5] is ACHN.
Experiment [6] deals with UO-31.
Experiment [7] has as its system T47D.
Experiment [8] deals with NCI-H460.
In experiment [9] the test system is MDA-MB-231.
The subject of experiment [10] is K562.
The subject of experiment [11] is OVCAR-4.
For experiment [12], the system named is NCI-H23.
Experiment [13] relates to UACC-257.
Experiment [14] relates to NCI-H522.
The test system of experiment [15] is MCF7.
Experiment [16] deals with HCC 2998.
Experiment [17] relates to CCRF-CEM.
For experiment [18], the system named is OVCAR-5.
The test system of experiment [19] is SF-295.

As to `Cc1ccc(S(=O)(=O)n2c3c(c4ccccc42)CCN2C(=O)C(S(=O)(=O)c4ccccc4)=CCC32)cc1` (stereo not given), the GI50 is 0.175 µM (active) in [1]; 0.239 µM (active) in [2]; 1.22 µM (inactive) in [3]; 0.157 µM (active) in experiment [4]; 0.193 µM (active) in experiment [5]; 0.234 µM (active) in experiment [6]. Moreover, the 50% growth inhibitory concentration (GI50) in experiment [7] was 0.154 µM (active); in experiment [8] it was 0.368 µM (active); in experiment [9], 0.186 µM (active); in experiment [10] it was 0.202 µM (active); in [11], 0.179 µM (active); in experiment [12] it was 0.158 µM (active). The GI50 in experiment [13] is 0.169 µM (active); in [14] it was 0.259 µM (active); in experiment [15] it was 0.164 µM (active); in experiment [16], 0.212 µM (active); in [17] it was 0.228 µM (active); in experiment [18] it was 0.23 µM (active). Moreover, the GI50 in experiment [19] was 1.79 µM (inactive).

Consider `Cc1cc(N(CCCl)CCCl)ccc1/C=N/NC(=O)Cc1cc(=O)oc2cc(O)ccc12`, for which the GI50 is 14.3 µM (inactive) in [1]; 11.9 µM (inactive) in experiment [2]; 12.2 µM (inactive) in [3]; 28.6 µM (inactive) in [4]; 6.67 µM (inactive) in experiment [5]; 22.9 µM (inactive) in experiment [6]. Besides, the GI50 was 6.85 µM (inactive) in [7]; 8.93 µM (inactive) in experiment [8]; 30.6 µM (inactive) in [9]; 9.18 µM (inactive) in experiment [10]; 16.6 µM (inactive) in [11]; 19.5 µM (inactive) in experiment [12]. For the same compound, the GI50 in experiment [13] was 20.8 µM (inactive); in [14] it was 13.7 µM (inactive); in experiment [15], 5.83 µM (inactive); in [16], 28.2 µM (inactive); in experiment [17] it was 6.38 µM (inactive); in experiment [18] it was 31.6 µM (inactive). Further, the GI50 in experiment [19] was 17.2 µM (inactive).

As to `CC1OC(OC2C(O)COC(OC3C(C)OC(OC4C(OC(=O)[C@]56CCC(C)(C)C[C@@H]5C5=CCC7[C@@]8(C)C[C@H](O)[C@H](OC9OC(CO)C(O)C(OC%10OC(CO)C(O)C(O)C%10O)C9O)[C@@](C)(CO)[C@@H]8CC[C@@]7(C)[C@]5(C)CC6)OCC(O)C4O)C(O)C3O)C2O)C(O)C(O)C1O` (stereo not given in full), the GI50 in experiment [1] is 13 µM (inactive); in experiment [2] it was 11 µM (inactive); in [3] it was 14.4 µM (inactive); in experiment [4], 18.9 µM (inactive); in [5], 17.7 µM (inactive); in [6], 4.17 µM (inactive). In addition, the GI50 in [7] is 16 µM (inactive); in experiment [8], 19 µM (inactive); in [9] it was 16.3 µM (inactive); in [10] it was 31.2 µM (inactive); in [11], 14.9 µM (inactive); in experiment [12] it was 14.9 µM (inactive). The GI50 was 18.3 µM (inactive) in experiment [13]; 15.5 µM (inactive) in experiment [14]; 16.4 µM (inactive) in experiment [15]; 16.2 µM (inactive) in [16]; 14.7 µM (inactive) in experiment [17]; 12.2 µM (inactive) in [18]. Also, the GI50 in experiment [19] was 14.4 µM (inactive).

As to `S=C1N=C(Cl)/C(=C\c2ccccc2)N1`, the GI50 in experiment [1] is > 100 µM (inactive); in experiment [2], > 100 µM (inactive); in experiment [3] it was > 83.6 µM (inactive); in [4], > 100 µM (inactive); in experiment [5] it was > 100 µM (inactive); in experiment [6], > 100 µM (inactive). Besides, the GI50 in experiment [7], in experiment [8], in experiment [9], in experiment [10], in [11] and in experiment [12] was > 100 µM (inactive) in each case. Also, the GI50 was > 100 µM (inactive) in experiment [13]; > 100 µM (inactive) in experiment [14]; > 100 µM (inactive) in experiment [15]; 1.06 µM (active) in [16]; > 31.6 µM (inactive) in experiment [17]; > 100 µM (inactive) in experiment [18]. Also, the GI50 in experiment [19] is > 100 µM (inactive).

For `CC(CN(C)C)C(=O)/C=C/c1ccc(Cl)c(Cl)c1` (stereo not given), the GI50 is 2.09 µM (inactive) in [1]; 1.04 µM (active) in experiment [2]; 3.33 µM (inactive) in experiment [3]; 19.1 µM (inactive) in experiment [4]; 1.87 µM (inactive) in experiment [5]; 1.69 µM (inactive) in experiment [6]. Further, the GI50 in [7] was 24.7 µM (inactive); in experiment [8], 2.24 µM (inactive); in [9] it was 1.73 µM (inactive); in [10], 3.01 µM (inactive); in experiment [11] it was 4.76 µM (inactive); in experiment [12], 2.11 µM (inactive). For the same compound, the GI50 in experiment [13] is 2.38 µM (inactive); in [14], 1.55 µM (inactive); in experiment [15], 0.307 µM (active); in experiment [16] it was 1.94 µM (inactive); in experiment [17], 0.453 µM (active); in experiment [18], 2.06 µM (inactive). Also, the GI50 in experiment [19] was 3.44 µM (inactive).

Turning to `NS(=O)(=O)c1ccc(/N=N/c2nc3[nH]cnc(=S)c3[nH]2)cc1`, the GI50 in experiment [1] was 0.369 µM (active); in experiment [2], 3.73 µM (inactive); in experiment [3], 4.93 µM (inactive); in [4], 2.05 µM (inactive); in experiment [5], 3.1 µM (inactive); in experiment [6] it was 0.849 µM (active). For the same compound, the GI50 in experiment [7] was 1.16 µM (inactive); in experiment [8] it was 0.82 µM (active); in experiment [9], 1.21 µM (inactive); in experiment [10], 0.3 µM (active); in experiment [11], 4.51 µM (inactive); in [12], 1.74 µM (inactive). The GI50 in [13] is 2.94 µM (inactive); in [14], 0.887 µM (active); in experiment [15], 0.944 µM (active); in experiment [16], 0.682 µM (active); in [17], 0.0902 µM (active); in experiment [18] it was 0.759 µM (active). Moreover, in [19], the GI50 is 1.59 µM (inactive).

`CC(=O)N1C(c2[nH]c3ccccc3c2-c2ccccc2)CCN1c1ccccc1` (stereo not given): the GI50 is > 10 µM (inactive) in [1]; 8.97 µM (inactive) in experiment [2]; > 10 µM (inactive) in experiment [3]; > 10 µM (inactive) in [4]; > 10 µM (inactive) in experiment [5]; > 10 µM (inactive) in experiment [6]. In addition, the GI50 was > 10 µM (inactive) in experiment [7]; > 10 µM (inactive) in experiment [8]; > 10 µM (inactive) in experiment [9]; 9.18 µM (inactive) in [10]; > 10 µM (inactive) in [11]; > 10 µM (inactive) in [12]. For the same compound, the GI50 in experiment [13] was > 10 µM (inactive); in experiment [14], > 10 µM (inactive); in experiment [15] it was > 10 µM (inactive); in experiment [16], > 10 µM (inactive); in [17], 7.8 µM (inactive); in experiment [18] it was > 10 µM (inactive). In [19], the GI50 was > 10 µM (inactive).

For the compound `NC(=O)c1nnc2c(F)cccc2c1N`, the GI50 was > 100 µM (inactive) in [1]; > 100 µM (inactive) in experiment [2]; 84.5 µM (inactive) in [3]; > 100 µM (inactive) in [4]; > 100 µM (inactive) in experiment [5]; 56 µM (inactive) in experiment [6]. Besides, the GI50 in experiment [7] is > 100 µM (inactive); in [8], 72.1 µM (inactive); in experiment [9] it was > 100 µM (inactive); in experiment [10], 55.1 µM (inactive); in experiment [11] it was > 100 µM (inactive); in [12], > 100 µM (inactive). For the same compound, the GI50 in experiment [13] is > 100 µM (inactive); in experiment [14] it was 21.9 µM (inactive); in experiment [15] it was 40 µM (inactive); in [16] it was 93.1 µM (inactive); in [17] it was 28.7 µM (inactive); in [18], > 100 µM (inactive). For the same compound, the GI50 in experiment [19] was > 100 µM (inactive).

In the case of `CC1C(C#N)(C#N)C(C#N)=C(N)C1(C)[N+](=O)[O-]` (stereo not given), the GI50 is > 100 µM (inactive) in experiment [1]; 66.4 µM (inactive) in experiment [2]; 23.5 µM (inactive) in experiment [3]; 89.5 µM (inactive) in [4]; 87.5 µM (inactive) in experiment [5]; > 100 µM (inactive) in [6]. In addition, the GI50 in [7] was > 10 µM (inactive); in experiment [8] it was 30.6 µM (inactive); in [9], > 100 µM (inactive); in experiment [10], 29.9 µM (inactive); in experiment [11], 47.4 µM (inactive); in experiment [12], > 100 µM (inactive). For the same compound, the GI50 in experiment [13] is 79.8 µM (inactive); in experiment [14] it was 36.7 µM (inactive); in [15] it was 24.8 µM (inactive); in experiment [16], 47.6 µM (inactive); in experiment [17], 32.4 µM (inactive); in [18], > 100 µM (inactive). In addition, in [19], the GI50 was > 100 µM (inactive).

Take `CCCCCCCCC/C=C1/CC(CO)(COC(=O)C2CCCCC2)OC1=O` (stereo not given): the GI50 in experiment [1], in [2], in experiment [3], in experiment [4], in experiment [5] and in experiment [6] was > 100 µM (inactive) throughout. Besides, the GI50 is > 100 µM (inactive) in experiment [7]; > 100 µM (inactive) in [8]; > 100 µM (inactive) in experiment [9]; 67.5 µM (inactive) in experiment [10]; > 100 µM (inactive) in [11]; > 100 µM (inactive) in [12]. In addition, the GI50 is > 100 µM (inactive) in experiment [13]; 63.1 µM (inactive) in experiment [14]; > 100 µM (inactive) in experiment [15]; > 100 µM (inactive) in experiment [16]; > 100 µM (inactive) in experiment [17]; > 100 µM (inactive) in [18]. In experiment [19], the GI50 was > 100 µM (inactive).
